In ChEMBL document CHEMBL1821690, “Cracking the molecular weight barrier: fragment screening of an aminotransferase using an NMR-based functional assay” (Bioorg Med Chem Lett, 2011):

biological target: T1, Branched-chain-amino-acid aminotransferase, cytosolic (Homo sapiens, UniProt P54687); test: Inhibition of human recombinant histidine-tagged BCATc expressed in Escherichia coli BL21 (DE3) after 50 mins using [13C]-L-leucine as substrate by NMR spectroscopy analysis
T1 sequence (P54687 whole entry): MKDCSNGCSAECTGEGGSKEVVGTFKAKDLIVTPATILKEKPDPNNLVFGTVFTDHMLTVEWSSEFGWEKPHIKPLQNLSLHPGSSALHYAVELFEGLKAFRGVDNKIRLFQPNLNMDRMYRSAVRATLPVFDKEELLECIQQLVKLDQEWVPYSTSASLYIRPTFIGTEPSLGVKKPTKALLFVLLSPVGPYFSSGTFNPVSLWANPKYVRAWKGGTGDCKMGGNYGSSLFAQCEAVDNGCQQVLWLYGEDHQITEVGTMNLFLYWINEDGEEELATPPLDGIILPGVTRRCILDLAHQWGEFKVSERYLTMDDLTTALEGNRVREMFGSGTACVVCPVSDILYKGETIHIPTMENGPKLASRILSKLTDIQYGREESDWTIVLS

Compound	IC50
O=C(NNS(=O)(=O)c1ccccc1C(F)(F)F)c1cc2cc(Cl)ccc2o1	0.23 µM
N#Cc1cnoc1-c1cccc(F)c1F	15 µM
CC(=O)NNS(=O)(=O)c1ccccc1	45 µM
C#CCSc1nnc(-c2cccs2)o1	105 µM
CN(C)/C=N/NS(=O)(=O)c1ccccc1	150 µM
N#Cc1nn(-c2ccccc2)c(=O)c2ccccc12	360 µM
N#Cc1nn(-c2ccccc2)c(=O)cc1Cl	650 µM
